{"source": "paper PMC12203311", "about": "“Design, synthesis, in silico and in vitro evaluation of pyrrole–indole hybrids as dual tubulin and aromatase inhibitors with potent anticancer activities” (RSC Advances, 2025)", "key": {"[1]": {"biological_target": "T1, Human CYP19 (aromatase) (Homo sapiens, UniProt P11511)", "T1 construct": "purchased GENTEST, Woburn, MA 456260; host or cells: baculovirus/insect cells", "T1 sequence (P11511 1-503)": "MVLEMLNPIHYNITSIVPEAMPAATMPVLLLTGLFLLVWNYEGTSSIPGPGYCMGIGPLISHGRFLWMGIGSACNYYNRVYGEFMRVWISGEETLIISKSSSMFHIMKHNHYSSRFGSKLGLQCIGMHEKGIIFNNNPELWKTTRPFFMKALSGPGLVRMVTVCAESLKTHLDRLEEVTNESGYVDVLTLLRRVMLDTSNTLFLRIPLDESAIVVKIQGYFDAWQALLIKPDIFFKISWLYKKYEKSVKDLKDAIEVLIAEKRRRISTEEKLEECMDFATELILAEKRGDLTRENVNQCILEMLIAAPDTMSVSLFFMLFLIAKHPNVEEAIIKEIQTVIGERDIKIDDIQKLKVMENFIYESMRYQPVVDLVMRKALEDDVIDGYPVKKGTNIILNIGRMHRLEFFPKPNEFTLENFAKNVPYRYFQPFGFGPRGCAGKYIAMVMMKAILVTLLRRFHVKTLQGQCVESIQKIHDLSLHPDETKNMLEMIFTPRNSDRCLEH", "assay": "Aromatase inhibition assay (DBF fluorometric substrate)", "format": "biochemical", "details": "active defined as IC50 < 12.5 µM", "how_it_was_run": "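Insect-cell-expressed human CYP19 Supersomes with oxidoreductase turned over DBF for 30 min at 37 °C after a 10 min 37 °C pre-incubation with cofactor. NaOH quench; product measured by fluorescence, excitation 490 nm, emission 530 nm.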"}, "[2]": {"tested_on": "DU-145", "assay": "NCI60 five-dose screen", "format": "cell-based", "details": "Homo sapiens, DU-145, prostate cancer"}, "[3]": {"tested_on": "SF-539", "assay": "NCI60 five-dose screen", "format": "cell-based", "details": "Homo sapiens, SF-539, CNS cancer"}, "[4]": {"tested_on": "MOLT-4", "assay": "NCI60 five-dose screen", "format": "cell-based", "details": "Homo sapiens, MOLT-4, leukemia"}, "[5]": {"tested_on": "UACC-257", "assay": "NCI60 five-dose screen", "format": "cell-based", "details": "Homo sapiens, UACC-257, melanoma"}, "[6]": {"tested_on": "MALME-3M", "assay": "NCI60 five-dose screen", "format": "cell-based", "details": "Homo sapiens, melanoma"}, "[7]": {"tested_on": "NCI-H522", "assay": "NCI60 five-dose screen", "format": "cell-based", "details": "Homo sapiens, NCI-H522, NSC lung cancer"}, "[8]": {"tested_on": "MCF7", "assay": "NCI60 five-dose screen", "format": "cell-based", "details": "Homo sapiens, MCF7, breast cancer"}, "[9]": {"tested_on": "K-562", "assay": "NCI60 five-dose screen", "format": "cell-based", "details": "Homo sapiens, K562, K-562, leukemia"}, "[10]": {"tested_on": "NCI-H322M", "assay": "NCI60 five-dose screen", "format": "cell-based", "details": "Homo sapiens, NSC lung cancer"}, "[11]": {"tested_on": "A549/ATCC", "assay": "NCI60 five-dose screen", "format": "cell-based", "details": "Homo sapiens, NSC lung cancer"}, "[12]": {"tested_on": "NCI-H460", "assay": "NCI60 five-dose screen", "format": "cell-based", "details": "Homo sapiens, NCI-H460, NSC lung cancer"}, "[13]": {"tested_on": "HS 578T", "assay": "NCI60 five-dose screen", "format": "cell-based", "details": "Homo sapiens, breast cancer"}, "[14]": {"tested_on": "SK-OV-3", "assay": "NCI60 five-dose screen", "format": "cell-based", "details": "Homo sapiens, SK-OV-3, ovarian cancer"}, "[15]": {"tested_on": "M14", "assay": "NCI60 five-dose screen", "format": "cell-based", "details": "Homo sapiens, M14, melanoma"}, "[16]": {"tested_on": "HCT-15", "assay": "NCI60 five-dose screen", "format": "cell-based", "details": "Homo sapiens, HCT-15, colon cancer"}, "[17]": {"tested_on": "KM12", "assay": "NCI60 five-dose screen", "format": "cell-based", "details": "Homo sapiens, KM12, colon cancer"}, "[18]": {"tested_on": "OVCAR-8", "assay": "NCI60 five-dose screen", "format": "cell-based", "details": "Homo sapiens, OVCAR-8, ovarian cancer"}, "[19]": {"tested_on": "MDA-MB-435", "assay": "NCI60 five-dose screen", "format": "cell-based, human", "details": "Homo sapiens"}, "[20]": {"tested_on": "EKVX", "assay": "NCI60 five-dose screen", "format": "cell-based", "details": "Homo sapiens, NSC lung cancer"}, "[21]": {"tested_on": "NCI-H226", "assay": "NCI60 five-dose screen", "format": "cell-based", "details": "Homo sapiens, NCI-H226, NSC lung cancer"}, "[22]": {"tested_on": "MDA-MB-231/ATCC", "assay": "NCI60 five-dose screen", "format": "cell-based", "details": "Homo sapiens, breast cancer"}, "[23]": {"tested_on": "NCI/ADR-RES", "assay": "NCI60 five-dose screen", "format": "cell-based, human", "details": "Homo sapiens, ovarian cancer"}, "[24]": {"tested_on": "SNB-19", "assay": "NCI60 five-dose screen", "format": "cell-based", "details": "Homo sapiens, SNB-19, CNS cancer"}, "[25]": {"tested_on": "OVCAR-4", "assay": "NCI60 five-dose screen", "format": "cell-based", "details": "Homo sapiens, OVCAR-4, ovarian cancer"}, "[26]": {"tested_on": "RXF 393", "assay": "NCI60 five-dose screen", "format": "cell-based", "details": "Homo sapiens, RXF 393, renal cancer"}, "[27]": {"tested_on": "SW-620", "assay": "NCI60 five-dose screen", "format": "cell-based", "details": "Homo sapiens, SW-620, colon cancer"}, "[28]": {"details": "read-out: LC50 (the source's name)"}}}
{"molecule": "CCOC(=O)c1c[nH]c(/C=N/NC(=O)c2[nH]c3ccc(Br)cc3c2-c2ccccc2)c1", "note": "[Derivative 3j, Ethyl (E)-5-((2-(5-bromo-3-phenyl-1H-indole-2-carbonyl)hydrazono)methyl)-1H-pyrrole-3-carboxylate]", "values": [{"measurement": "IC50", "setting": "[1]", "result": "1.3 ± 0.4", "unit": "µM"}, {"measurement": "GI50", "setting": "[2]", "result": 3.48, "unit": "µM"}, {"measurement": "CC50", "setting": "[2]; [28]", "result": 35.6, "unit": "µM"}, {"measurement": "GI50", "setting": "[3]", "result": 2.26, "unit": "µM"}, {"measurement": "CC50", "setting": "[3]; [28]", "result": 19.4, "unit": "µM"}, {"measurement": "GI50", "setting": "[4]", "result": 2.1, "unit": "µM"}, {"measurement": "CC50", "setting": "[4]; [28]", "result": 53.4, "unit": "µM"}, {"measurement": "GI50", "setting": "[5]", "result": 2.53, "unit": "µM"}, {"measurement": "CC50", "setting": "[5]; [28]", "result": 51.8, "unit": "µM"}, {"measurement": "GI50", "setting": "[6]", "result": 6.06, "unit": "µM"}, {"measurement": "CC50", "setting": "[6]; [28]", "result": 54.9, "unit": "µM"}, {"measurement": "GI50", "setting": "[7]", "result": 2.27, "unit": "µM"}, {"measurement": "CC50", "setting": "[7]; [28]", "result": 33, "unit": "µM"}, {"measurement": "GI50", "setting": "[8]", "result": 2.76, "unit": "µM"}, {"measurement": "CC50", "setting": "[8]; [28]", "result": 50.2, "unit": "µM"}, {"measurement": "GI50", "setting": "[9]", "result": 1.9, "unit": "µM"}, {"measurement": "CC50", "setting": "[9]; [28]", "result": 57.1, "unit": "µM"}, {"measurement": "GI50", "setting": "[10]", "result": 5.63, "unit": "µM"}, {"measurement": "CC50", "setting": "[10]; [28]", "result": 50, "unit": "µM"}, {"measurement": "GI50", "setting": "[11]", "result": 2.7, "unit": "µM"}, {"measurement": "CC50", "setting": "[11]; [28]", "result": 51.8, "unit": "µM"}, {"measurement": "GI50", "setting": "[12]", "result": 2.41, "unit": "µM"}, {"measurement": "CC50", "setting": "[12]; [28]", "result": 23.1, "unit": "µM"}, {"measurement": "GI50", "setting": "[13]", "result": 2.36, "unit": "µM"}, {"measurement": "CC50", "setting": "[13]; [28]", "result": "> 100", "unit": "µM"}, {"measurement": "GI50", "setting": "[14]", "result": 4.53, "unit": "µM"}, {"measurement": "CC50", "setting": "[14]; [28]", "result": 45.3, "unit": "µM"}, {"measurement": "GI50", "setting": "[15]", "result": 2.39, "unit": "µM"}, {"measurement": "CC50", "setting": "[15]; [28]", "result": 50.3, "unit": "µM"}, {"measurement": "GI50", "setting": "[16]", "result": 2.93, "unit": "µM"}, {"measurement": "CC50", "setting": "[16]; [28]", "result": 51.9, "unit": "µM"}, {"measurement": "GI50", "setting": "[17]", "result": 2.21, "unit": "µM"}, {"measurement": "CC50", "setting": "[17]; [28]", "result": 33.9, "unit": "µM"}, {"measurement": "GI50", "setting": "[18]", "result": 2.37, "unit": "µM"}, {"measurement": "CC50", "setting": "[18]; [28]", "result": 23.7, "unit": "µM"}, {"measurement": "CC50", "setting": "[19]; MDA-MB-435, MDA-MB-435, melanoma, read-out: LC50 (the source's name)", "result": 16.1, "unit": "µM"}, {"measurement": "GI50", "setting": "[19]; MDA-MB-435, melanoma", "result": 1.09, "unit": "µM"}, {"measurement": "GI50", "setting": "[20]", "result": 4.57, "unit": "µM"}, {"measurement": "CC50", "setting": "[20]; [28]", "result": 43.1, "unit": "µM"}, {"measurement": "GI50", "setting": "[21]", "result": 3.07, "unit": "µM"}, {"measurement": "CC50", "setting": "[21]; [28]", "result": 41.3, "unit": "µM"}, {"measurement": "GI50", "setting": "[22]", "result": 2.85, "unit": "µM"}, {"measurement": "CC50", "setting": "[22]; [28]", "result": 36.8, "unit": "µM"}, {"measurement": "GI50", "setting": "[23]", "result": 1.89, "unit": "µM"}, {"measurement": "CC50", "setting": "[23]; [28]", "result": 10.4, "unit": "µM"}, {"measurement": "GI50", "setting": "[24]", "result": 4.51, "unit": "µM"}, {"measurement": "CC50", "setting": "[24]; [28]", "result": 46.1, "unit": "µM"}, {"measurement": "GI50", "setting": "[25]", "result": 2.28, "unit": "µM"}, {"measurement": "CC50", "setting": "[25]; [28]", "result": 34.8, "unit": "µM"}, {"measurement": "GI50", "setting": "[26]", "result": 1.36, "unit": "µM"}, {"measurement": "CC50", "setting": "[26]; [28]", "result": 22, "unit": "µM"}, {"measurement": "GI50", "setting": "[27]", "result": 3.36, "unit": "µM"}, {"measurement": "CC50", "setting": "[27]; [28]", "result": 76.2, "unit": "µM"}]}
